Source: ChEMBL document CHEMBL1129988, “4-substituted cubylcarbinylamines: a new class of mechanism-based monoamine oxidase B inactivators” (J Med Chem, 1997)

Assay: Partition ratio was determined

| Partition ratio | SMILES |
| --- | --- |
| 536 | NCC12C3C4C1C1C2C3C41C1CC1 (stereo not drawn) |
| 277 | NCC12C3C4C1C1C2C3C41c1ccccc1 (stereo not drawn) |
| 152 | NCC12C3C4C5C3C1C5C42 (stereo not drawn) |
